Measurements: patent US20240409528A1, “BINDERS OF CEREBLON AND METHODS OF USE THEREOF” (DANA-FARBER CANCER INSTITUTE, INC., priority 2021, published 2024)
Converted amounts (≈) assume the structure as drawn. Read-outs that look alike come from different tables or passages of the source.

Experiments:
Kinetic solubility = assay type: physicochemical; conditions: kinetic from dmso stock
Caco-2 permeability = assay type: in vitro ADME; conditions: human
[1] = Human liver microsome (HLM) stability; assay type: in vitro ADME; conditions: human liver microsomes
Protocol: (§1) The stability of compounds was assessed in human plasma, human liver microsomes (HLM) and human hepatocytes (Hhep) using procedures previously published (Kong el al., ACS Med Chem Lett 12:1861-1865 (2021)). […] HLM stability T1/2 compound 1: >145 min. Hhep stability Tin compound 1: >217 min.

[2] = Human hepatocyte (Hhep) stability; assay type: in vitro ADME; conditions: human hepatocytes
Protocol: as §1

hsCRBN-DDB1 complex [3] = target: T1, hsCRBN-DDB1 complex (Homo sapiens, UniProt Q96SW2); test: Intact LC-MS of CRBN-DDB1 complex (covalent labeling); assay type: binding; conditions: for adduct formation with CRBN (intact MS): equimolar compound, room temperature
Protocol: After injecting 5 μg, proteins were desalted for four min on column with 100% A and then eluted with an HPLC gradient (0-100% B in 1 min; A=0.2 M acetic acid in water; B=0.2 M acetic acid in acetonitrile). The mass spectrometer was programmed to acquire full scan mass spectra (m/z 300-2000) in profile mode (spray voltage=4.5 kV). Mass spectra were deconvoluted using MagTran software version 1.03b2.

IKZF1 = test: Inhibition of IKZF1 degradation by lenalidomide, Western blot in MOLT4 cells; conditions: 1 μM compound 2 hr pre-treatment, then 1 μM lenalidomide 5 hours
hsCRBN-DDB1 complex [4] = target: T1, hsCRBN-DDB1 complex; test: Peptide mapping CE-MS/MS, site of covalent modification; assay type: binding; conditions: trypsin digest
Text: Peptides were resolved at 500 V/cm using an HR chip with a background electrolyte consisting of 50% acetonitrile with 1% formic acid. The mass spectrometer was operated in data dependent mode and the five most abundant ions in each MS scan (m/z 300-2000, 60K resolution, 3E6 target, 100 ms max fill time) were subjected to MS/MS (15K resolution, 1E5 target, 100 ms max fill time). […] Search parameters specified fixed vinylpyridine modification of cysteine, variable methionine oxidation, and variable modification of cysteine. Modified spectra were examined and figures prepared using mzStudio software.

PFKFB4 = target: T2, PFKFB4 (Homo sapiens, UniProt Q16877); test: Mass spectrometry proteomics, relative protein abundance in MOLT4 cells (PFKFB4); assay type: cell-based; conditions: 1 μM compound, 5 hours
T2 construct: endogenous in cells; host or cells: MOLT4

RNF166 = target: T3, RNF166 (Homo sapiens, UniProt Q96A37); test: Mass spectrometry proteomics, relative protein abundance in MOLT4 cells (RNF166); assay type: cell-based; conditions: 1 μM compound, 5 hours
T3 construct: endogenous in cells; host or cells: MOLT4
T3 sequence (Q96A37 1-237): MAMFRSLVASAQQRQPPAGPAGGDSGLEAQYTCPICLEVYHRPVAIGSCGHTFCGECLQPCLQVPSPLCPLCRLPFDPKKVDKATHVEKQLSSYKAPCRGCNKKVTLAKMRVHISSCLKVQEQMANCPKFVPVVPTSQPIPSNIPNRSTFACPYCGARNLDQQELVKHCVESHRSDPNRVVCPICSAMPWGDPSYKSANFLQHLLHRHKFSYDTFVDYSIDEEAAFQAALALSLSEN

GSPT1 = target: T4, GSPT1 (Homo sapiens, UniProt P15170); test: Mass spectrometry proteomics, relative protein abundance in MOLT4 cells (GSPT1); assay type: cell-based; conditions: 1 μM compound, 5 hours
T4 construct: endogenous in cells; host or cells: MOLT4

NanoLuc-CRBN = target: T5, NanoLuc-CRBN (Homo sapiens, UniProt Q96SW2); test: Cellular CRBN NanoBret Engagement Assay; assay type: cell-based
T5 construct: expressed in transfected cells; host or cells: HEK293T, lentiviral transduction, puromycin selection
Protocol: HEK293T cells were transduced with lentivirus and put under puromycin selection (5 μg/mL) for two weeks to produce a cell line stably expressing CRBN with N-terminally fused NanoLuc® luciferase (NanoLuc-CRBN). After antibiotic selection, cells were cultured in DMEM (Gibco, Life Technologies) supplemented with 10% FBS and 1 μg/mL puromycin to maintain stable NanoLuc®-CRBN expression. […] After 3-4 min, the trypsin was quenched with 5× volume DMEM media (Gibco, Life Technologies) with 10% FBS and cells were collected by centrifugation (1000 rpm, 5 min). The supernatant was removed by vacuum aspiration and the pellet was then resuspended in Opti-MEM™ without phenol red. The density of this cell suspension was determined by diluting the cells 1:1 with trypan blue, then counting using a Countess II (Thermo Fischer Scientific) and then diluted to the required volume at 2×10^5 viable cells/mL in Opti-MEM™ I (Gibco, Life Technologies). […] After plating, the assay plate was centrifuged (500×g, 5 min) and covered in aluminum foil. Compounds for testing were added to the plate using a D300e Digital Dispenser (HP) in duplicate 12-pt titrations from a 10 mM stock in DMSO, with DMSO normalized to 1% total volume. The plate was then placed in an incubator at 37° C., 5% CO2 for two hours. […] This was then added to each well (25 μL/well). The plate was read on a Pherastar FSX microplate reader with simultaneous dual emission capabilities to read 384-well plates at 450 and 520 nm. The NanoBRET™ ratio was calculated by dividing the signal at 520 nm by the signal at 450 nm for each sample. […] The NanoLuc® substrate and extracellular inhibitor were purchased as a kit from Promega Corporation and used as is from the box—Promega NanoBRET™ Nano-Glo® Substrate/Inhibitor; Promega Catalog number N2161 for 10,000 assay kit.

in vitro = conditions: human, plasma
[5] = HEK293T cells stably expressing NanoLuc-CRBN, 250 nM BODIPY-lenalidomide tracer, 2 h incubation, read-out: CRBN NanoBRET IC50

For `O=C1CCC(N2Cc3ccc(OS(=O)(=O)F)cc3C2=O)C(=O)N1` (stereo not drawn) [Compound 1, 2-(2,6-dioxopiperidin-3-yl)-3-oxoisoindolin-5-yl sulfurofluoridate], the solubility kinetic (Kinetic solubility) was 119 µM (≈ 40.7 µg/mL), the Papp (Caco-2 permeability) was 29.5 ×10⁻⁶ cm/s and the “HLM stability T1/2” value [1] was > 2.42 h. For the same compound, the “Hhep stability Tin” value [2] was > 217 min.
For `O=C1CCC(N2Cc3cc(OS(=O)(=O)F)ccc3C2=O)C(=O)N1` (stereo not drawn) [Compound 2, 2-(2,6-dioxopiperidin-3-yl)-1-oxoisoindolin-5-yl sulfurofluoridate], the “adduct formation with CRBN (intact MS)” value (hsCRBN-DDB1 complex [3]) was “form an adduct with CRBN”.
With `O=C1CCC(N2Cc3ccc(S(=O)(=O)F)cc3C2=O)C(=O)N1` (stereo not drawn) [Compound 3, 2-(2,6-dioxopiperidin-3-yl)-3-oxoisoindoline-5-sulfonyl fluoride] the “inhibition of IKZF1 degradation by lenalidomide” value (IKZF1) was “clearly inhibits the degradation of IKZF1 by lenalidomide”, the “mass shift of CRBN (Δmass)” value (hsCRBN-DDB1 complex [3]; 1 eq. compound, 4 hr) was 307 and the “adduct formation with CRBN (intact MS)” value (hsCRBN-DDB1 complex [3]) was “form an adduct with CRBN”.
With `O=C1CCC(N2Cc3cc(S(=O)(=O)F)ccc3C2=O)C(=O)N1` (stereo not drawn) [Compound 4, 2-(2,6-dioxopiperidin-3-yl)-1-oxoisoindoline-5-sulfonyl fluoride] the “site of covalent labeling of CRBN” value (hsCRBN-DDB1 complex [4]) was “label His353”, the “relative fold-change abundance of PFKFB4” value (PFKFB4) was “clearly downregulated” and the “adduct formation with CRBN (intact MS)” value (hsCRBN-DDB1 complex [3]) was “form an adduct with CRBN”. For the same compound, the “relative fold-change abundance of RNF166” value (RNF166) was “clearly downregulated” and the “relative fold-change abundance of GSPT1” value (GSPT1) was “clearly downregulated”.
With `C=CS(=O)(=O)c1ccc2c(c1)C(=O)N(C1CCC(=O)NC1=O)C2` (stereo not drawn) [Compound 5, 3-(1-oxo-6-(vinylsulfonyl)isoindolin-2-yl)piperidine-2,6-dione] the IC50 (NanoLuc-CRBN; [5]) was 12.6 µM.
Work on `C=CS(=O)(=O)Nc1ccc2c(c1)C(=O)N(C1CCC(=O)NC1=O)C2` (stereo not drawn) [Compound 6, N-(2-(2,6-dioxopiperidin-3-yl)-3-oxoisoindolin-5-yl)ethenesulfonamide] yielded an IC50 (NanoLuc-CRBN; [5]) of 0.54 µM.
In the case of `Nc1cc(OS(=O)(=O)F)cc2c1CN(C1CCC(=O)NC1=O)C2=O` (stereo not drawn) [Compound 10, 4-amino-2-(2,6-dioxo-3-piperidyl)-6-fluorosulfonyloxy-1-oxo-isoindoline], the IC50 (NanoLuc-CRBN) is reported as 0.89 µM.
In the case of `Cc1cnn(S(=O)(=O)c2ccc3c(c2)C(=O)N(C2CCC(=O)NC2=O)C3)c1` (stereo not drawn) [Compound 11, 3-(6-((4-methyl-1H-pyrazol-1-yl)sulfonyl)-1-oxoisoindolin-2-yl)piperidine-2,6-dione], the “Human plasma stability T1/2” value is reported as > 4.82 h.
For `O=C1CCC(N2Cc3ccc(S(=O)(=O)n4cc(F)cn4)cc3C2=O)C(=O)N1` (stereo not drawn) [Compound 12, 3-(6-((4-fluoro-1H-pyrazol-1-yl)sulfonyl)-1-oxoisoindolin-2-yl)piperidine-2,6-dione], the “Human plasma stability T1/2” value was 1.53 h.
For `O=C1CCC(N2Cc3ccc(S(=O)(=O)n4cc(C(F)(F)F)cn4)cc3C2=O)C(=O)N1` (stereo not drawn) [Compound 13, 3-(1-oxo-6-((4-(trifluoromethyl)-1H-pyrazol-1-yl)sulfonyl)isoindolin-2-yl)piperidine-2,6-dione], the “Human plasma stability T1/2” value was 0.167 h.
In the case of `O=C1CCC(N2Cc3ccc(S(=O)(=O)n4cnc(C(F)(F)F)c4)cc3C2=O)C(=O)N1` (stereo not drawn) [Compound 14, 3-(1-oxo-6-((4-(trifluoromethyl)-1H-imidazol-1-yl)sulfonyl)isoindolin-2-yl)piperidine-2,6-dione], the “Human plasma stability T1/2” value is reported as 0.108 h.
For `O=C1CCC(N2Cc3ccc(S(=O)(=O)n4ccc(F)n4)cc3C2=O)C(=O)N1` (stereo not drawn) [Compound 15, 3-(6-((3-fluoro-1H-pyrazol-1-yl)sulfonyl)-1-oxoisoindolin-2-yl)piperidine-2,6-dione], the “Human plasma stability T1/2” value was 1.92 h.
For `O=C1CCC(N2Cc3ccc(S(=O)(=O)n4cnc(F)c4)cc3C2=O)C(=O)N1` (stereo not drawn) [Compound 17, 3-(6-((4-fluoro-1H-imidazol-1-yl)sulfonyl)-1-oxoisoindolin-2-yl)piperidine-2,6-dione], the “Human plasma stability T1/2” value was 0.317 h.
For `O=C1CCC(N2Cc3ccc(S(=O)(=O)n4ccc(C(F)(F)F)n4)cc3C2=O)C(=O)N1` (stereo not drawn) [Compound 18, 3-(1-oxo-6-((3-(trifluoromethyl)-1H-pyrazol-1-yl)sulfonyl)isoindolin-2-yl)piperidine-2,6-dione], the “Human plasma stability T1/2” value was 0.233 h.
In the case of `Cc1cn(S(=O)(=O)c2ccc3c(c2)C(=O)N(C2CCC(=O)NC2=O)C3)c(=O)[nH]c1=O` (stereo not drawn) [Compound 19, 1-((2-(2,6-dioxopiperidin-3-yl)-3-oxoisoindolin-5-yl)sulfonyl)-5-methylpyrimidine-2,4(1H,3H)-dione], the “Human plasma stability T1/2” value is reported as 3.98 h.
With `Nc1cn(S(=O)(=O)c2ccc3c(c2)C(=O)N(C2CCC(=O)NC2=O)C3)c(=O)[nH]c1=O` (stereo not drawn) [Compound 20, 5-amino-1-((2-(2,6-dioxopiperidin-3-yl)-3-oxoisoindolin-5-yl)sulfonyl)pyrimidine-2,4(1H,3H)-dione] the IC50 (NanoLuc-CRBN; [5]) was 8.63 µM and the half-life (in vitro) was > 4.82 h.
For `O=C1CCC(N2Cc3ccc(S(=O)(=O)n4ccc(=O)[nH]c4=O)cc3C2=O)C(=O)N1` (stereo not drawn) [Compound 21, 1-((2-(2,6-dioxopiperidin-3-yl)-3-oxoisoindolin-5-yl)sulfonyl)pyrimidine-2,4(1H,3H)-dione], the “Human plasma stability T1/2” value was 2.72 h.
